Reference: patent US10722575B2, “Use of 1,3-diphenylprop-2-en-1-one derivatives for treating liver disorders” (GENFIT, priority 2009, dated 2020)
Marks after values point to notes of the source that are not given here.

What was measured:
[1] = system: human primary hepatic stellate cells (hHSC); assay: TGFβ1-induced hHSC activation, gene expression by quantitative PCR; assay type: cell-based; conditions: TGFβ1 1 ng/ml, 24 hours; for Inhibition of the TGFβ1-induced hHSC activation: Col1α1 / Inhibition of the TGFβ1-induced hHSC activation: Col4α1 / Inhibition of the TGFβ1-induced hHSC activation: αSMA: 10 μM; for inhibition at 10 µM: Homo sapiens
Experimental: (§1) Compounds were dissolved in dimethyl sulfoxide (DMSO, Fluka cat #41640)
(§2) The human primary hepatic stellate cells (hHSC) (ScienCell) were cultured in STeCM medium (ScienCell cat #5301) that was supplemented with 2% fetal bovine serum (FBS, ScienCell cat #0010), 1% penicillin/streptomycine (ScienCell cat #0503) and stellate cell growth supplement (SteCGS; ScienCell cat #5352). Culture plastics were coated with Poly-L Lysine (Sigma cat # P4707).
The human primary hepatic stellate cells (hHSC) (ScienCell) were cultured under standard conditions, as described above. For experiments to determine gene expression patterns, hHSC were plated at a density of 7×10^4 cells/well into 24-well plates and were cultured overnight. Next day, culture medium was replaced by serum-free and SteCGS-free medium for an additional 16 hours. Cells were treated with a compound of General Formula (I) in addition to TGFβ1 (1 ng/ml) in a serum-free and SteCGS-free medium for 24 hours.
Total RNA was isolated using Nucleospin® 96 RNA kit (Macherey Nagel) following manufacturer's instructions. 100 ng of total RNA were reverse transcribed in cDNA using M-MLV RT (Moloney Murine Leukemia Virus Reverse Transcriptase) (Invitrogen cat #28025) in presence of RT buffer 1× (Invitrogen), 1 mM DTT (Invitrogen), 0.18 mM dNTPs (Promega), 200 ng pdN6 (Amersham) and 30U of RNase inhibitor (Promega).
Quantitative PCR was then carried out using the CFX96 TOUCH™ Real-Time PCR Detection System (Biorad). Briefly, PCR reactions were performed in 96 well plates on 5 μl of 5× diluted reverse transcription mix using the iQ SYBR Green Supermix kit. The experimental conditions were: 25 μl of volume reaction, 3 mM of MgCl2, and 0.5 μl each of reverse and forward primers (10 pMol).
Expression levels were normalized using the expression of 36B4 gene as reference (sequences SEQ ID NO: 1 and SEQ ID NO: 2 as shown above).
For each gene, the standard curves were drawn by selecting the best points (at least three points) in order to have PCR reaction efficiency close to 100% and a correlation coefficient close to 1. Expression levels were determined using the standard curve equation for both the housekeeping gene and the target gene (taking into account the specific PCR efficiency of each target gene).

[2] = system: human primary hepatic stellate cells (hHSC); assay: PDGF-BB-induced hHSC proliferation, BrdU incorporation; assay type: cell-based; conditions: PDGF-BB 10 ng/ml; for Inhibition of the PDGF-BB-induced hHSC proliferation: BrdU Incorporation: 10 μM
Experimental: as §1, §2
hHSC were plated at a density of 1.2×10^4 cells/well into 96-well plates and were cultured overnight at 37° C. and 5% CO2, followed by washing of cells with PBS (Invitrogen cat #14190) and replacing the growth medium with a serum-free and SteCGS-free medium for an additional 24 hours. For PDGF-induced proliferation assay, cells were pre-treated with a compound of General Formula (I) for 1 hour before the addition of PDGF-BB (10 ng/ml; R&D Systems cat #520-BB). Treatments were then continued for additional 20 hours.
Cell proliferation was measured by bromodeoxyuridine (BrdU) incorporation using a BrdU labeling and detection kit (Roche cat #11647229001). BrdU labeling solution was added to cells, followed by incubation for another 4 hours before fixation, addition of nucleases, addition of anti-BrdU-POD and peroxidase substrate. The absorbance at 405 nm (with a reference wavelength at 690 nm) was measured using an ELISA plate reader (Tecan).

Compound | Inhibition of the TGFβ1-induced hHSC activation: Col1α1 [1] | Inhibition of the TGFβ1-induced hHSC activation: Col4α1 [1] | Inhibition of the TGFβ1-induced hHSC activation: αSMA [1] | Inhibition of the PDGF-BB-induced hHSC proliferation: BrdU Incorporation [2] | inhibition at 10 µM ([1]; read-out: Inhibition of the TGFβ1-induced hHSC activation: Col1α1) [%] | inhibition at 10 µM ([1]; read-out: Inhibition of the TGFβ1-induced hHSC activation: Col4α1) [%] | inhibition at 10 µM ([1]; read-out: Inhibition of the TGFβ1-induced hHSC activation: αSMA) [%] | inhibition at 10 µM ([2]; Homo sapiens) [%]
Cc1cc(C=CC(=O)c2ccc(Cl)cc2)cc(C)c1OC(C)(C)C(=O)O [Cpd 17 WO2004OO5233, 1-[4-chlorophenyl]-3-[3,5-dimethyl-4-carboxydimethylmethyloxyphenyl]prop-2-en-1-one] | −29% | −56% *** | −30% *** | 6% | – | – | – | –
CCCCCCOc1ccc(C(=O)C=Cc2cc(C)c(OC(C)(C)C(=O)O)c(C)c2)cc1 [Cpd 33 WO2004OO5233, 1-[4-hexyloxyphenyl]-3-[3,5-dimethyl-4-carboxydimethylmethyloxyphenyl]prop-2-en-1-one] | −58% * | −73% *** | −71% *** | 35%^ | – | – | – | –
Cc1cc(C=CC(=O)c2ccc(Br)cc2)cc(C)c1OC(C)(C)C(=O)O [Cpd 41 WO2004OO5233, 1-[4-bromophenyl]-3-[3,5-dimethyl-4-carboxydimethylmethyloxyphenyl]prop-2-en-1-one] | −28% | −32% ** | −2% | −34% | – | – | – | –
CCc1cc(C=CC(=O)c2ccc(C(C)C)cc2)cc(CC)c1OC(C)(C)C(=O)O [Cpd 56 US20070032543, 1-[4-isopropylphenyl]-3-[3,5-diethyl-4-carboxydimethylmethyloxyphenyl]prop-2-en-1-one] | −62% ** | −66% *** | −87% *** | −127% *** | – | – | – | –
CSc1ccc(C(=O)C=Cc2cc(C)c(OCC(=O)O)c(C)c2)cc1 [Cpd 72 US20070032543, 1-[4-methylthiophenyl]-3-[3,5-dimethyl-4-carboxymethyloxyphenyl]prop-2-en-1-one] | – | – | – | – | 37 | 51 | 74 | 126
CSc1ccc(C(=O)C=Cc2cc(C(C)C)c(OCC(=O)O)c(C(C)C)c2)cc1 [Cpd 74 US20070032543, 1-[4-methylthiophenyl]-3-[3,5-diisopropyl-4-carboxymethyloxyphenyl]prop-2-en-one] | −82% *** | −85% *** | −97% *** | −127% *** | – | – | – | –
Cc1cc(C=CC(=O)c2ccc(Oc3ccccc3)cc2)cc(C)c1OC(C)(C)C(=O)O [Cpd 33 WO2005073184, 1-(4-Phenyloxyphenyl)-3-(4-carboxydimethylmethyloxy-3,5-dimethylphenyl)prop-2-en-1-one] | −37% | 12% ^ | −49% *** | −127% *** | – | – | – | –
COc1ccc(C(=O)C=Cc2cc(C)c(OC(C)(C)C(=O)O)c(C)c2)cc1 [Cpd 80 US20070032543, 1-[4-methyoxyphenyl]-3-[3,5-dimethyl-4-carboxydimethylmethyloxyphenyl]prop-2-en-1-one] | −64% ** | −66% *** | −55% *** | −136% *** | – | – | – | –
CCCCCCSc1ccc(C(=O)C=Cc2cc(C)c(OC(C)(C)C(=O)O)c(C)c2)cc1 [Cpd 84 US20070032543, 1-[4-hexylthiophenyl]-3-[3,5-dimethyl-4-carboxydimethylmethyloxyphenyl]prop-2-en-1-one] | −60% ** | −64% *** | −64% *** | −33% | – | – | – | –
Cc1cc(C=CC(=O)c2ccc(OCCC3CCCCC3)cc2)cc(C)c1OC(C)(C)C(=O)O [Cpd 11 WO2005073184, 1-(4-Cyclohexylethyloxyphenyl)-3-(4-carboxydimethylmethyloxy-3,5-dimethylphenyl)prop-2-en-1-one] | −66% ** | −78% *** | −92% *** | −6%^ | – | – | – | –
Cc1cc(C=CC(=O)c2ccc(C(F)(F)F)cc2)cc(C)c1OC(C)(C)C(=O)O [Cpd 58 US20070032543, 1-[4-trifluoromethylphenyl]-3-[3,5-dimethyl-4-carboxydimethylmethyloxyphenyl]prop-2-en-1-one] | 55% * | −3% | 5%^ | −5%^ | – | – | – | –
Cc1cc(C=CC(=O)c2ccc(SC(F)(F)F)cc2)cc(C)c1OC(C)(C)C(=O)O [Cpd 54 US20070032543, 1-[4-trifluoromethylthiophenyl]3-[3,5-dimethyl-4-carboxydimethymethyoxyphenyl]prop-2-en-1-one] | −27% | −40% *** | −57% *** | 12%^ | – | – | – | –
